# Test results: patent US8299096B2, “Method for treating pulmonary diseases using rho kinase inhibitor compounds” (priority 2008, dated 2012)
# How the values were obtained:
# [1] = system: ovalbumin-sensitized mice; test: Bronchodilator assay in ovalbumin-sensitized mouse model of asthma (Penh); type: in vivo; settings: oral doses
# Description: Male BALB/c mice were ordered from Charles River Laboratories (Raleigh, N.C.). The animals were approximately 19 to 21 grams at time of receipt. Upon arrival, the animals were randomized into groups of five males per cage and assigned to a dosing group. Animals were quarantined for 7 days under test conditions. They were observed daily for general health status and ability to adapt to the water bottles.
# Animals were sensitized on day 0 and 14 of study by an intraperitoneal injection with 20 μg of ovalbumin (ova) and 2.0 mg aluminum hydroxide (alum) which initiates the development of a specific T-helper (Th) cells type 2 resulting in asthmatic animals. One group of animals received an injection of saline to use as non-asthmatic control animals. All animals were challenged with aerosolized 1% ova once daily for 25 minutes on days 28, 29, and 30 (Zosky, et al. Respiratory Research, 2004; 5:15). Aerosol challenge consists of using an Aerogen Aeroneb nebulizer and controller with a particle size of 4-6 μm mass median aerodynamic diameter (MMAD) with a distribution of 400 μl per minute. This aerosol challenge is necessary to target the Th2-driven allergic inflammation in the lower airways.
# The test compounds and the control vehicle were administered to animals on the day of airway hyperreactivity evaluation 30 minutes to 1 hour before the evaluation to determine the bronchodilator effects of the compounds according to the bronchodilator dosing paradigm (FIG. 3A). Compounds were administered p.o. (orally), i.p. (intraperitoneally) at 15 μMol/kg unless otherwise noted (Table 4). Alternatively, compounds were administered i.t. (intratracheally) at varying doses as shown (FIG. 3B). On day 32 of the experiment, airway hyperreactivity was evaluated by placing conscious, unrestrained animals in a whole body plethysmometer (Buxco Wilmington, N.C.) and exposing them to escalating doses of nebulized methacholine, a known bronchial constrictor which acts through the muscarinic receptors of the lungs, (doses: […]-50 mg/ml). Exposure to the methacholine doses consisted of a 3 minute period during which a nebulizer was aerosolizing the methacholine and an additional 3 minute period following the cessation of nebulization. Over this 6 minute period, the plethysmometer monitors and generates numerical values for all parameters of the breath pattern. Enhanced pause (Penh), a unitless index of airway hyperreactivity, is derived from the expiratory side of the respiratory waveform measured via the plethysmograph and is used as an indirect measure of airway resistance and hyperreactivity. […] Following the methacholine dose response, all animals were anesthetized, bled and euthanized.
# Within each experiment, a mouse was given a single compound and exposed to increasing doses of methacholine [0 (baseline), 0.375, 0.75, 1.5, 3, 6, 12, 25, 50 mg/ml]. The Penh value at each of the dose levels of methacholine represents the 6-minute average response. Change from baseline (CFB) in Penh was calculated at each methacholine dose and the area under the curve (AUC) for these CFB values was calculated using the trapezoidal rule. This same approach was applied for each mouse across multiple experiments.
# For statistical analyses, a linear mixed-effects model where the response was the log 10 transformed value of AUC described above was used. Data from equal experimental conditions across experiments performed on different days were pooled for statistical analysis and data reporting. The various compounds were compared adjusting for the log 10-transformed baseline value of Penh and the chamber (1 of 10) of the plethysmometer each mouse was contained in during an experiment. A random intercept for each experiment was assumed to account for possible similarities of the results obtained from a given experiment (i.e., as a “blocking effect”).
# For Table 4 and Table 5, Penh values are reported as log 10 transformed AUC values. […]
# [2] = system: ovalbumin-sensitized mice; test: Anti-inflammatory assay in ovalbumin-sensitized mouse model of asthma (BALF cells and cytokines); type: in vivo
# Source text: Mouse model of asthma via ovalbumin sensitization was created as described in Example 5. The anti-inflammatory dosing paradigm (FIG. 4) was utilized to evaluate the anti-inflammatory effects of experimental compounds. The anti-inflammatory dosing paradigm consists of dosing the animals once a day starting on day 27 and finishing on either day 30 or 31 (1 hr prior to the aerosolized ovalbumin challenges on days 28 to 30) but not on day 32 when hyper-reactivity evaluation occurs.
# Bronchoalveolar lavage fluid (BALF) was collected by infusing 3.0 ml of saline with 10% fetal calf serum into the lungs via the trachea and then withdrawing the fluid. The total amount of cells/ml of BALF fluid was determined via manual cell count on hemocytometer. The BALF was centrifuged, supernatant removed and analyzed for cytokine concentrations as described below, and cell pellet reconstituted in 500 μL of fluid. Cytospin slides were prepared from the cell pellet using 100 μL of fluid and spinning samples for 5 minutes at 5000 rpms in a cytospin centrifuge. Following Hema3 stain, relative percentages of individual leukocytes were determined on a 200 cell count for each sample. The final concentration of individual leukocyte cell types per ml of BALF was determined by multiplication of the relative percentage of individual leukocytes with the total amount of cells/ml of BALF fluid.
# The concentrations of cytokines in the BALF samples were determined using commercially available Bio-plex kits (Bio-Rad) for the detection of mouse IL-5, IL-13, and Eotaxin. The analysis of cytokine levels was measured using the Bio-Plex 200 (Bio-Rad) system according to the manufacturer's instructions.
# [3] = system: ovalbumin-sensitized mice; test: Prevention of airway hyperreactivity development, anti-inflammatory dosing paradigm (Penh); type: in vivo, mouse; settings: oral, 15 μMol/kg once a day during days 27 to 31
# human eosinophils = test: Human eosinophil chemotaxis (eotaxin-induced); type: cell-based; settings: 1 nM eotaxin, one hour
# Source text: Human Eosinophil Isolation: Peripheral blood from healthy human volunteers was collected and the PMNs separated via Ficoll-paque density centrifugation followed by hypotonic lysis of the red blood cells. Subsequently, the human eosinophils were isolated from the cell suspension via StemCell Technologies Human Eosinophil Enrichment kit (Cat. No 19256) according to the manufacturer's recommendations. Briefly, unwanted cells were specifically labeled with dextran-coated magnetic nanoparticles using bispecific Tetrameric Antibody Complexes (TAC) directed against cell surface antigens on human blood cells: […] The unwanted cells are then separated from the unlabelled eosinophils using the EasySep® magnetic isolation procedure. In Vitro Chemotaxis: […]
# murine eosinophils = test: Murine eosinophil chemotaxis (eotaxin-induced); type: cell-based, mouse; settings: 10 nM eotaxin, one hour
# Description: Mouse Eosinophil Isolation: Bronchoalveolar lavage was collected from ovalbumin sensitized and challenged mice in a volume of 2.5 mL lavage buffer. The lavage buffer was 0.9% saline with 10% fetal bovine serum. The pooled lavages were maintained on ice until use. The murine eosinophils were isolated using MACS cell separation (Miltenyi Biotech) by depletion of B cells and T cells by positive selection following incubation with antibody conjugated magnetic beads specific for CD45-R (B220) and CD90 (Thy 1.2), which bind B cells and T cells, respectively.
# In Vitro Chemotaxis: Eosinophil chemotaxis was assessed using a modified Boyden Chamber (Neuroprobe, 96-well) with a 5 μm pore membrane. The ability of the tested compounds to block chemotaxis induced by a 10 nM eotaxin challenge (mouse) or 1 nM eotaxin challenge (human) during one hour incubation at 37° C. with 5% CO2 was assessed. Chemotaxis was quantified via microscopy by counting the number of migrated cells in at least 3 view fields per treatment.
# [4] = Compound plasma concentrations in mice at 15 min post administration; type: in vivo, mouse; settings: mouse plasma, 15 minutes, oral
# Description: Additionally, compound concentrations were determined in the plasma and lungs of male, ovalbumin-sensitized, Balb/c mice from a murine model of asthma. Test compounds were formulated in water or 1% polysorbate 80 and dosed at 15 μmol/kg for intraperitoneal (IP) or oral (PO) administration or formulated for intratracheal (IT) administration and dosed at 5 μmol/kg, which directly targets the lungs. Following completion of the in vivo study, mice were euthanized and blood and plasma collected approximately 2.5-3 hours post administration of test compound for bronchodialator (BD) studies and 24 hours post administration for anti-inflamatory (AI) studies. Lungs were homogenized in Matrix A lysing tubes using a FastPrep 24 tissue and cell homogenizer (MP Biomedicals, Solon, Ohio). Both plasma samples and lung extracts were assayed for compound concentrations using an on-line, solid phase extraction LC/MS/MS system.
# rat aorta = test: Aortal relaxation assay, norepinephrine precontracted; settings: 100 nM norepinephrine, 100 μM compound
# Description: The effects of compounds to induce relaxation of pre-contracted rat pulmonary artery and rat aorta were determined. Male Sprague-Dawley rats weighing 301-325 gm were sacrificed by asphyxiation in a CO2 chamber. Pulmonary artery or aorta were excised, cleaned of connective tissue and cut into cylindrical segments of 2-3 mm length. The preparations were mounted in a tissue bath by tying two threads of surgical silk through the lumen of the vessel. One silk was used to anchor the tissue to a metal wire in the bath and the other silk was connected to a force transducer. Preparations were mounted in 5 ml water-jacketed organ baths (Radnoti Glass Technology) filled with Krebs buffer (95 mM NaCl, 5 mM KCl, 2.6 mM CaCl2, 1.2 mM MgSO4, 24.9 mM NaHCO3, 1.2 mM KH2PO4, 10 mM glucose) maintained at 37° C. and gassed with 95% O2 and 5% CO2. Contractile tensions were measured using an isometric force transducer (Grass Instruments) and signals were analyzed using specialized software (Chart v5.5, ADInstruments). […] For pulmonary artery, compounds were added cumulatively to the bath every 30 minutes and reductions in tension were recorded. […] For aorta, a single dose of compound was added and reductions in tension were recorded.
# rat tracheal rings = test: Tracheal relaxation assay, carbachol precontracted rings; settings: Rattus norvegicus, read-out: IC50 Avg, tracheal ring relaxation
# Description: Trachea were excised, cleaned of connective tissue and cut into cylindrical segments of 2-3 mm length. Two stainless steel wires were guided through the lumen of the tracheal ring. One wire was fixed in the tissue bath and the other was connected to a force transducer via surgical silk. […] Indomethacin (1 μM), a cyclooxygenase inhibitor, was added to the Krebs buffer and was present throughout the experiments. Contractile tensions were measured using an isometric force transducer (Grass Instruments) and signals were analyzed using specialized software (Chart v5.5, ADInstruments). The preparations were allowed to equilibrate at a resting tension of 0.3 to 0.5 gm prior to two challenges with 60 mM KCl to assess tissue viability. After washing, tissues were treated with 1 μM carbachol for 10 to 15 minutes to induce a contractile response. Test Compounds were added cumulatively to the bath every 30 minutes and reductions in tension were recorded. Basal tension was subtracted from all values and data were reported as a percentage of the maximal carbachol-induced contraction. Data were fit to the Hill equation using GraphPad Prism v5 software.
# human neutrophils = test: Human neutrophil chemotaxis (fMLP-induced); type: cell-based; settings: 1 h, read-out: Chemotaxis Avg IC50
# Description: Peripheral blood from healthy human volunteers was collected and the neutrophils were isolated by Ficoll-paque density centrifugation followed by dextran sedimentation and hypotonic lysis of the red blood cells. Neutrophil chemotaxis was assessed using a modified Boyden Chamber (Neuroprobe, 96-well) with a 3 μm pore polycarbonate membrane. The ability of the tested compounds to block chemotaxis induced by a 1 μM fMLP challenge during a one hour incubation at 37° C. with 5% CO2 was assessed in a dose response manner.
# [5] = 15 μmol/kg/oral on days 27 to 31
smiles,measurement,setting,value
CS(=O)(=O)Nc1cccc(CN2CC[C@@H](Nc3cccc4cnccc34)C2)c1 [Compound 2.038],Reduction in airway hyperresponsivness,[1],statistically significant reduction
same,Eotaxin level in BALF,[2]; [5],reduced levels
same,IL-5 level in BALF,[2]; [5],reduced levels
same,IL-13 level in BALF,[2]; [5],reduced levels
same,Airway eosinophil infiltration (eosinophils per ml of BALF),"[2]; dosed orally to day 31, anti-inflammatory dosing paradigm",reduced
same,Prevention of airway hyperreactivity to metacholine on Day 32,[3],prevention of airway hyperreactivity
same,Eotaxin-induced chemotactic response of human eosinophils,human eosinophils,inhibited
same,Eotaxin-induced chemotactic response of murine eosinophils,murine eosinophils,inhibited
same,Detection in mouse plasma 15 minutes after oral dosing,[4],readily detectable
OCCOc1cccc(CN2CC[C@@H](Nc3cccc4cnccc34)C2)c1 [Compound 2.039],Norepinephrine-induced tension of aortal ring,rat aorta,fully reversed
"Cc1cncc2cccc(S(=O)(=O)N3CCCNC[C@@H]3C)c12 [Compound H-1152, 4-methyl-5-(2-methyl-[1,4]diazepan-1-sulfonyl)isoquinoline]",IC50,rat tracheal rings,0.164 µM
same,IC50,human neutrophils,4.35 µM
